In brackets after ≈: the same amount, converted by molar mass. Where a SMILES comes first, the peptide text is derived from it. Where no end group is shown, it is not given here. [ ]: non-standard residue; d: D form. Tle = CC(C)(C)[C@H](N)C(=O)O; Orn = NCCC[C@H](N)C(=O)O
Tests used:
E. coli D31 = assay type: cell-based, Escherichia coli; settings: D31, 20 h
Protocol: (§1) The minimal inhibition concentrations (MIC) of the apidaecin-derived peptides and peptide-derivatives were determined by a growth inhibition assay using a serial peptide dilution in sterilized round-bottom 96-well plates (polystyrene, U-bottom, Greiner Bio-One GmbH) with a final volume of 100 μL per well. The bacteria, e.g., E. coli BL21 A1, were grown in nutrient broth (NB, Carl Roth GmbH+Co. KG, Karlsruhe, Germany) at 37° C. over night. To each well of the 96-well plate, 50 μL of the overnight culture adjusted to 5×10^6 CFU/mL in 1% TSB were added. Lyophilized peptides and peptidomimetics were dissolved in 1% TSB (tryptic soy broth) or water to give a final concentration of 250 μg/mL. Fifty μL of the peptide or peptidomimetics solution were added to the first well of a row on the plate and mixed. Fifty μL of the first well containing the peptide solution were transferred to the second well, mixed and again 50 μL transferred to the next well and so on. Thereby, a two-fold dilution series was obtained starting at 250 μg/mL in the first well down to 120 ng/mL in the 12th well of a row giving a final peptide or peptidomimetics concentration from 125 μg/mL (well 1) to 60 ng/mL (well 12). Plates were incubated at 37° C. for 20 hrs. The absorbance was measured at 595 nm using a TECAN micro plate spectrophotometer (Tecan, Germany). All peptides and peptidomimetics were measured in triplicates. Sterilized water was used as a negative control.
(§2) The following multidrug resistant bacteria strains were tested: • Eschericha coli 45849 and D31, • Klebsiella pneumoniae 123132 and K6, • Salmonella typhi S5 and Salmonella enterica subsp. enterica serovar Typhimurium (ATCC 700408), • Rhizobium radiobacter (ATCC 15955 deposited as Agrobacterium tumefaciens).

[1] = test system: K. Pneumonia K6, ATCC 700603; assay: Growth inhibition assay (MIC); assay type: cell-based, Klebsiella pneumoniae; settings: multidrug resistant strain; 1% TSB, 37° C., 20 hrs
Protocol: as §1, §2

[2] = test system: S. enterica subsp. Enterica serovar. typhi G10215 ATCC 700408; assay type: cell-based, Salmonella enterica; settings: ATCC 700408, 20 h
Protocol: as §1, §2

E. coli BL 21 AI = assay: Growth inhibition assay (MIC); assay type: cell-based, Escherichia coli; settings: 1% TSB, 37° C., 20 hrs
Protocol: as §1
(§3) The bacteria strains were tested: • Eschericha coli 1103, 10233, BL 21 AI, DC 2, • Klebsiella pneumoniae 681, • Micrococcus luteus ATCC 10240, • Mycobacterium vaccae • Bactillus subtillis 347.

M. luteus ATCC 10240 = assay type: cell-based, Micrococcus luteus; settings: ATCC 10240, 20 h
Protocol: as §1, §3

Molecule | MIC E. coli D31 (E. coli D31) [µg/mL] | MIC K. Pneumonia K6, ATCC 700603 [1] [µg/mL] | MIC S. enterica subsp. Enterica serovar. typhi G10215 ATCC 700408 [2] [µg/mL] | MIC E. coli BL 21 AI (E. coli BL 21 AI) [µg/mL] | MIC M. luteus ATCC 10240 (M. luteus ATCC 10240) [µg/mL]
GNNRPVYIPQPRPPHPL-NH2 [compound 43] | >128 | >64 | >64 | – | –
CC[C@H](C)[C@H](NC(=O)[C@H](Cc1ccc(O)cc1)NC(=O)[C@@H](NC(=O)[C@@H]1CCCN1C(=O)[C@H](CCCNC(=N)N)NC(=O)[C@H](CC(N)=O)NC(=O)[C@H](CC(N)=O)NC(=O)[C@H](CCCN)NC(C)=O)C(C)C)C(=O)N1CCC[C@H]1C(=O)N[C@@H](CCC(N)=O)C(=O)N1CCC[C@H]1C(=O)N[C@@H](CCCNC(=N)N)C(=O)N1CCC[C@H]1C(=O)N1CCC[C@H]1C(=O)N[C@@H](Cc1c[nH]cn1)C(=O)N1CCC[C@H]1C(=O)N[C@@H](CCCNC(=N)N)C(=O)N[C@H](CC(C)C)C(N)=O [compound 72] (Ac-[Orn]NNRPVYIPQPRPPHPR[dL]-NH2) | – | – | – | >125 | 7.81 (≈ 3.54 µM)
CC[C@H](C)[C@H](NC(=O)[C@H](CCCNC(=N)N)NC(=O)[C@@H]1CCCN1C(=O)[C@H](Cc1c[nH]cn1)NC(=O)[C@@H]1CCCN1C(=O)[C@@H]1CCCN1C(=O)[C@H](CCCNC(=N)N)NC(=O)[C@@H]1CCCN1C(=O)[C@H](CCCNC(=N)N)NC(=O)[C@@H]1CCCN1C(=O)[C@@H](NC(=O)[C@H](Cc1ccc(O)cc1)NC(=O)[C@@H](NC(=O)[C@@H]1CCCN1C(=O)[C@H](CCCNC(=N)N)NC(=O)[C@H](CC(N)=O)NC(=O)[C@H](CC(N)=O)NC(=O)[C@@H](N)CCCN)C(C)C)[C@@H](C)CC)C(N)=O [compound 16] (H-[Orn]NNRPVYIPRPRPPHPRI-NH2) | 128 (≈ 58.4 µM) | 32 (≈ 14.6 µM) | 2 (≈ 0.912 µM) | 0.98 (≈ 0.447 µM) | 3.91 (≈ 1.78 µM)
CC[C@H](C)[C@H](NC(=O)[C@H](Cc1ccc(O)cc1)NC(=O)[C@@H](NC(=O)[C@@H]1CCCN1C(=O)[C@H](CCCNC(=N)N)NC(=O)[C@H](CC(N)=O)NC(=O)[C@H](CC(N)=O)NC(=O)CN)C(C)C)C(=O)N1CCC[C@H]1C(=O)N[C@@H](CCC(N)=O)C(=O)N1CCC[C@H]1C(=O)N[C@@H](CCCNC(=N)N)C(=O)N1CCC[C@H]1C(=O)N1CCC[C@H]1C(=O)N[C@@H](Cc1c[nH]cn1)C(=O)N1CCC[C@H]1C(=O)N[C@@H](CCCNC(=N)N)C(=O)N[C@H](CC(C)C)C(N)=O [compound 77] (H-GNNRPVYIPQPRPPHPR[dL]-NH2) | – | – | – | >125 | 31.25 (≈ 14.8 µM)
CC[C@H](C)[C@H](NC(=O)[C@H](Cc1ccc(O)cc1)NC(=O)[C@@H](NC(=O)[C@@H]1CCCN1C(=O)[C@H](CCCNC(=N)N)NC(=O)[C@H](CC(N)=O)NC(=O)[C@H](CC(N)=O)NC(=O)[C@H](CCCN)NC(C)=O)C(C)C)C(=O)N1CCC[C@H]1C(=O)N[C@@H](CCC(N)=O)C(=O)N1CCC[C@H]1C(=O)N[C@@H](CCCNC(=N)N)C(=O)N1CCC[C@H]1C(=O)N1CCC[C@H]1C(=O)N[C@@H](Cc1c[nH]cn1)C(=O)N1CCC[C@H]1C(=O)N[C@@H](CCCNC(=N)N)C(=O)N[C@@H](CC(C)C)C(=O)OC [compound 50] (Ac-[Orn]NNRPVYIPQPRPPHPRL-OMe) | >128 | >128 | 32 (≈ 14.4 µM) | – | –
CC[C@H](C)[C@H](NC(=O)[C@H](Cc1ccc(O)cc1)NC(=O)[C@@H](NC(=O)[C@@H]1CCCN1C(=O)[C@H](CCCNC(=N)N)NC(=O)[C@H](CC(N)=O)NC(=O)[C@H](CC(N)=O)NC(=O)[C@H](CCCN)NC(C)=O)C(C)C)C(=O)N1CCC[C@H]1C(=O)N[C@@H](CCC(N)=O)C(=O)N1CCC[C@H]1C(=O)N[C@@H](CCCNC(=N)N)C(=O)N1CCC[C@H]1C(=O)N1CCC[C@H]1C(=O)N[C@@H](Cc1c[nH]cn1)C(=O)N1CCC[C@H]1C(=O)N[C@@H](CCCNC(=N)N)C(=O)N[C@H](C(N)=O)C(C)(C)C [compound 73] (Ac-[Orn]NNRPVYIPQPRPPHPR[Tle]-NH2) | – | – | – | 62.5 (≈ 28.3 µM) | 7.81 (≈ 3.54 µM)

From US20150315241A1, “Antibiotic Peptides” (priority 2007, published 2015)
